In the supplement of paper PMC6315032:

Legend:
Assay in all cases: apparent dissociation constant (pKDapp, Kinobeads competition, Cheng-Prusoff corrected) (-log10 M); higher = tighter binding
EPHA1 = EPHA1 (UniProt P21709); conditions: affinity matrix / lysate: Kinobeads, mixed HEK293/K-562/placenta lysate
EPHB3 = EPHB3 (UniProt P54753); conditions: affinity matrix / lysate: Kinobeads, mixed HEK293/K-562/placenta lysate
EPHA6 = EPHA6 (UniProt Q9UF33); conditions: affinity matrix / lysate: Kinobeads, mixed HEK293/K-562/placenta lysate
HIPK2 = HIPK2 (UniProt Q9H2X6); conditions: affinity matrix / lysate: Kinobeads, mixed HEK293/K-562/placenta lysate
DAPK1 = DAPK1 (UniProt P53355); conditions: affinity matrix / lysate: Kinobeads, mixed HEK293/K-562/placenta lysate
PRKCI = PRKCI (UniProt P41743); conditions: affinity matrix / lysate: Kinobeads, mixed HEK293/K-562/placenta lysate
CSNK1E = CSNK1E (UniProt P49674); conditions: affinity matrix / lysate: Kinobeads, mixed HEK293/K-562/placenta lysate
TBK1 = TBK1 (UniProt Q9UHD2); conditions: affinity matrix / lysate: Kinobeads, mixed HEK293/K-562/placenta lysate
STK38 = STK38 (UniProt Q15208); conditions: affinity matrix / lysate: Kinobeads, mixed HEK293/K-562/placenta lysate
NEK3 = NEK3 (UniProt P51956); conditions: affinity matrix / lysate: Kinobeads, mixed HEK293/K-562/placenta lysate
MAP3K4 = MAP3K4 (UniProt Q9Y6R4); conditions: affinity matrix / lysate: Kinobeads, mixed HEK293/K-562/placenta lysate
HIPK1 = HIPK1 (UniProt Q86Z02); conditions: affinity matrix / lysate: Kinobeads, mixed HEK293/K-562/placenta lysate
CSNK1D = CSNK1D (UniProt P48730); conditions: affinity matrix / lysate: Kinobeads, mixed HEK293/K-562/placenta lysate
PAK4 = PAK4 (UniProt O96013); conditions: affinity matrix / lysate: Kinobeads, mixed HEK293/K-562/placenta lysate
STK16 = STK16 (UniProt O75716); conditions: affinity matrix / lysate: Kinobeads, mixed HEK293/K-562/placenta lysate
MAPK6 = MAPK6 (UniProt Q16659); conditions: affinity matrix / lysate: Kinobeads, mixed HEK293/K-562/placenta lysate
SLK = SLK (UniProt Q9H2G2); conditions: affinity matrix / lysate: Kinobeads, mixed HEK293/K-562/placenta lysate
CDC7 = CDC7 (UniProt O00311); conditions: affinity matrix / lysate: Kinobeads, mixed HEK293/K-562/placenta lysate
DDR1 = DDR1 (UniProt Q08345); conditions: affinity matrix / lysate: Kinobeads, mixed HEK293/K-562/placenta lysate
MAP4K3 = MAP4K3 (UniProt Q8IVH8); conditions: affinity matrix / lysate: Kinobeads, mixed HEK293/K-562/placenta lysate
ARAF = ARAF (UniProt P10398); conditions: affinity matrix / lysate: Kinobeads, mixed HEK293/K-562/placenta lysate
MYLK = MYLK (UniProt Q15746); conditions: affinity matrix / lysate: Kinobeads, mixed HEK293/K-562/placenta lysate
KIAA1804 = KIAA1804 (UniProt Q5TCX8); conditions: affinity matrix / lysate: Kinobeads, mixed HEK293/K-562/placenta lysate
GSK3A = GSK3A (UniProt P49840); conditions: affinity matrix / lysate: Kinobeads, mixed HEK293/K-562/placenta lysate
PTK2 = PTK2 (UniProt Q05397); conditions: affinity matrix / lysate: Kinobeads, mixed HEK293/K-562/placenta lysate
FER = FER (UniProt P16591); conditions: affinity matrix / lysate: Kinobeads, mixed HEK293/K-562/placenta lysate
CIT = CIT (UniProt O14578); conditions: affinity matrix / lysate: Kinobeads, mixed HEK293/K-562/placenta lysate
LIMK2 = LIMK2 (UniProt P53671); conditions: affinity matrix / lysate: Kinobeads, mixed HEK293/K-562/placenta lysate
ADCK1 = ADCK1 (UniProt Q86TW2); conditions: affinity matrix / lysate: Kinobeads, mixed HEK293/K-562/placenta lysate
MYLK3 = MYLK3 (UniProt Q32MK0); conditions: affinity matrix / lysate: Kinobeads, mixed HEK293/K-562/placenta lysate
PIK3CB = PIK3CB (UniProt P42338); conditions: affinity matrix / lysate: Lipid Kinobeads, mixed HeLa/Jurkat/K-562 lysate
MAP3K1 = MAP3K1 (UniProt Q13233); conditions: affinity matrix / lysate: Kinobeads, mixed HEK293/K-562/placenta lysate
PRKCB = PRKCB (UniProt P05771); conditions: affinity matrix / lysate: Kinobeads, mixed HEK293/K-562/placenta lysate

Measured: apparent dissociation constant (-log10 M)

MYLK, sequence (Q15746 whole entry): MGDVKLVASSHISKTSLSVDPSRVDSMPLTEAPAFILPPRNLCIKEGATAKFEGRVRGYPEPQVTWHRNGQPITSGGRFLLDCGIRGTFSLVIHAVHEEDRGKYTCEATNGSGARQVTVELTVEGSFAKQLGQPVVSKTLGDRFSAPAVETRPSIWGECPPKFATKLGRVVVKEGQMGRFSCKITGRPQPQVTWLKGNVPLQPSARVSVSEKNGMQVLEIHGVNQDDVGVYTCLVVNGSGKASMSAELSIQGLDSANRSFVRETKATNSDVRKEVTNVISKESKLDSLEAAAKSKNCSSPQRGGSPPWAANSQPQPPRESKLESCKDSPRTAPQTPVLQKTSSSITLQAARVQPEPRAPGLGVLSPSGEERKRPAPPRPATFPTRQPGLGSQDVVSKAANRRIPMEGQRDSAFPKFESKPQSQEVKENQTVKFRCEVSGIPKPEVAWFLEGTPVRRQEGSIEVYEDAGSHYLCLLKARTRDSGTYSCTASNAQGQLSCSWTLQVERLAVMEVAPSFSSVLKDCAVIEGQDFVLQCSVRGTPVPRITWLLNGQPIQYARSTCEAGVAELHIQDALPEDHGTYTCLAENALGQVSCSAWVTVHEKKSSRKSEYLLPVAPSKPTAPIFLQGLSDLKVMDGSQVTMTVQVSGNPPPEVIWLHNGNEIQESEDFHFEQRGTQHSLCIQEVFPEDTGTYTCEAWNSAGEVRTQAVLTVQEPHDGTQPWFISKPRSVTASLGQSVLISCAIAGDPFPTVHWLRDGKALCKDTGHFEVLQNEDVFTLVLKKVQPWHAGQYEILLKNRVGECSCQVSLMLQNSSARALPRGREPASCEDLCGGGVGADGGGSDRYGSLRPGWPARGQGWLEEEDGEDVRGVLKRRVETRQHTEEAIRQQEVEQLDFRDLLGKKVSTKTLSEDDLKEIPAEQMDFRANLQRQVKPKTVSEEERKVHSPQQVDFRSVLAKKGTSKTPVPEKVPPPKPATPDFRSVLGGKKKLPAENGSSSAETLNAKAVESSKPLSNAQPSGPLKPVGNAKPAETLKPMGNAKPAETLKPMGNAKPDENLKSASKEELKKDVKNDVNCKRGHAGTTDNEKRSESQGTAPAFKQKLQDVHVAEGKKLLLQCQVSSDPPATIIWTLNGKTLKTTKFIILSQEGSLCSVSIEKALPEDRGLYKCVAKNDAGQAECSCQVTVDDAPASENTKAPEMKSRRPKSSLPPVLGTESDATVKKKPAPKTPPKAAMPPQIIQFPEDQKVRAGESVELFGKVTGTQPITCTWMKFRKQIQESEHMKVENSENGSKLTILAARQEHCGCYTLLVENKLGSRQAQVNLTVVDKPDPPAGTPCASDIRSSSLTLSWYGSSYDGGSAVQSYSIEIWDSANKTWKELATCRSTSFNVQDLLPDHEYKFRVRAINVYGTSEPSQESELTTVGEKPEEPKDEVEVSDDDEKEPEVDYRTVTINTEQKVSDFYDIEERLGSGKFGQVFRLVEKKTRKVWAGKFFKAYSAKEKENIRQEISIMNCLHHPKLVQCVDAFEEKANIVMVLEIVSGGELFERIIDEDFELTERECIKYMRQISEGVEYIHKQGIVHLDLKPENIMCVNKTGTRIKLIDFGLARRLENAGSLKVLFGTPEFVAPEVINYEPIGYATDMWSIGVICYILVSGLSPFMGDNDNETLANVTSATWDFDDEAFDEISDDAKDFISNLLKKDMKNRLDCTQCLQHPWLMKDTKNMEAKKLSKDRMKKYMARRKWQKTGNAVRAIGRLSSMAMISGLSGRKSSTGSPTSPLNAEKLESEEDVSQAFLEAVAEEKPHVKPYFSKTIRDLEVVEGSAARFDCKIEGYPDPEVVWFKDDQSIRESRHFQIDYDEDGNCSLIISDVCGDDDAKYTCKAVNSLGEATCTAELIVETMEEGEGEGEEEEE
DAPK1, sequence (P53355 whole entry, looked up): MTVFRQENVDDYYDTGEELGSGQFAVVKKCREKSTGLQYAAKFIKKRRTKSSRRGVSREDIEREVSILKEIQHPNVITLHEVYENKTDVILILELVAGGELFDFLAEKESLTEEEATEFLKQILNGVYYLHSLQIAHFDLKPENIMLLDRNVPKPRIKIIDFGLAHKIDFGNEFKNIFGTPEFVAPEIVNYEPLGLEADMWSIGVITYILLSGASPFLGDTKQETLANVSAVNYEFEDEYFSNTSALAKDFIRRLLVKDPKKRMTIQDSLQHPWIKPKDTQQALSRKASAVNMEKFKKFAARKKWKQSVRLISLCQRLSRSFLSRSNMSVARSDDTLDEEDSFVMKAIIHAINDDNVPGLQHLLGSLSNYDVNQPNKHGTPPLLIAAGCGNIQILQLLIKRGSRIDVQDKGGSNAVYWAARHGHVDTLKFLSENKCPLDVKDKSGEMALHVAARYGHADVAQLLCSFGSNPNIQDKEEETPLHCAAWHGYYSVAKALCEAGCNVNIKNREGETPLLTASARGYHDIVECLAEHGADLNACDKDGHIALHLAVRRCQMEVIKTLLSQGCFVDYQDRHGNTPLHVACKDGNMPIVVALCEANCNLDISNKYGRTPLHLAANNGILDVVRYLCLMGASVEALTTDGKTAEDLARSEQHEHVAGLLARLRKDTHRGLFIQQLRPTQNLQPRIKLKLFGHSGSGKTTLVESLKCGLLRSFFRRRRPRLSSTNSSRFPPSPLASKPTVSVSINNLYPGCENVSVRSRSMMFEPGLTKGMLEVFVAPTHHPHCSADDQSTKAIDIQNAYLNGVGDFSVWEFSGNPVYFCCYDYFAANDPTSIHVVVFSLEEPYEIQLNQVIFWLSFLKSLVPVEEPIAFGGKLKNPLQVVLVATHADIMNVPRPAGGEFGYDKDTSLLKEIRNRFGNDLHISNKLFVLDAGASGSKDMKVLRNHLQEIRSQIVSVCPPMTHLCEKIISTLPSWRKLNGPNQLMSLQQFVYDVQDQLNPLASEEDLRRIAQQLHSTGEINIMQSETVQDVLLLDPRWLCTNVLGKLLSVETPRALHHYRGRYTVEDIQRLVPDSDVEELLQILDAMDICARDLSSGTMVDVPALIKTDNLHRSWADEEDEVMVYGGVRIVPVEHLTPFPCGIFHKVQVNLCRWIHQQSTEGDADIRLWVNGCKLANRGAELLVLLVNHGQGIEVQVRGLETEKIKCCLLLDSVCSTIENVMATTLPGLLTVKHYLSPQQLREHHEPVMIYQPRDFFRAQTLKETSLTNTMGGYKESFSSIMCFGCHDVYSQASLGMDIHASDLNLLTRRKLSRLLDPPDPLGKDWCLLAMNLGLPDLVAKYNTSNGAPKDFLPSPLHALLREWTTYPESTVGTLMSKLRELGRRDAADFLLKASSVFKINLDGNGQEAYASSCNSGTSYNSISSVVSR
MAPK6, sequence (Q16659 whole entry): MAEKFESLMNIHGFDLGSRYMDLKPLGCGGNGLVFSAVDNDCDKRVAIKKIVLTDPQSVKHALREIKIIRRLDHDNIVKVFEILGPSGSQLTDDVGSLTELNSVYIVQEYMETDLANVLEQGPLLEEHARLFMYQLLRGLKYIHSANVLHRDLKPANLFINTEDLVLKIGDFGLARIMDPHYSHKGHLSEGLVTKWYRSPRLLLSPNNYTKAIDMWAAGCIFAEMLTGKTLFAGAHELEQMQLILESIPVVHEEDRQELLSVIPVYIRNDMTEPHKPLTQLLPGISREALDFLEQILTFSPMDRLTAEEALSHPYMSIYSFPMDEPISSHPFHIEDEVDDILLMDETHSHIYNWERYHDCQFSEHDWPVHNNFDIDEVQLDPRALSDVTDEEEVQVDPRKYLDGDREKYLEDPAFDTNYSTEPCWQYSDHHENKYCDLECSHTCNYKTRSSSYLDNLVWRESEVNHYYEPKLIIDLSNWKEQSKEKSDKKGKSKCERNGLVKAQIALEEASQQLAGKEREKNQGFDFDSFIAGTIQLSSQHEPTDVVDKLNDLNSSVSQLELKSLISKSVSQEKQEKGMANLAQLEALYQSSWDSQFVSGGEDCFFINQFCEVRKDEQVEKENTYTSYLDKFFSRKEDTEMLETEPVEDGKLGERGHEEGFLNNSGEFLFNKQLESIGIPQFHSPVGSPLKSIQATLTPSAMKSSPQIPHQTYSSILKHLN
TBK1, sequence (Q9UHD2 whole entry): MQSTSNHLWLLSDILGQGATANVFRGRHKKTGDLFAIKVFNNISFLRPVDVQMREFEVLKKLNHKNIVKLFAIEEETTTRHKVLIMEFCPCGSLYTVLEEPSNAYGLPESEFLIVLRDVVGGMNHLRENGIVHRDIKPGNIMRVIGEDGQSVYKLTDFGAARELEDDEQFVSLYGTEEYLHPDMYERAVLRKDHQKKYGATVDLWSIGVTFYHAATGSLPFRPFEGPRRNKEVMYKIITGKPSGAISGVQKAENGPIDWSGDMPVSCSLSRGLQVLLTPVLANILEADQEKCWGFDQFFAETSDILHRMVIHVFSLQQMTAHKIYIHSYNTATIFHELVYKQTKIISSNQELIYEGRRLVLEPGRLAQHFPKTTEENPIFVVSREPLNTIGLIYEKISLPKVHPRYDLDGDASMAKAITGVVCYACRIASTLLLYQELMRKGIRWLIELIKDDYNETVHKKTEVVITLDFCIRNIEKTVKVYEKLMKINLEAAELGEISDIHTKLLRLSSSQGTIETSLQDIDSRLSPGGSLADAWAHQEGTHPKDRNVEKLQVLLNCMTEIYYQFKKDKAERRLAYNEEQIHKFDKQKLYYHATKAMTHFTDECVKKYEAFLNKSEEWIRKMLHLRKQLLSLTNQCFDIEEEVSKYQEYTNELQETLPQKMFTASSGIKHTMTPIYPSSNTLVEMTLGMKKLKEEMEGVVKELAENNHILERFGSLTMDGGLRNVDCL
STK16, sequence (O75716 whole entry): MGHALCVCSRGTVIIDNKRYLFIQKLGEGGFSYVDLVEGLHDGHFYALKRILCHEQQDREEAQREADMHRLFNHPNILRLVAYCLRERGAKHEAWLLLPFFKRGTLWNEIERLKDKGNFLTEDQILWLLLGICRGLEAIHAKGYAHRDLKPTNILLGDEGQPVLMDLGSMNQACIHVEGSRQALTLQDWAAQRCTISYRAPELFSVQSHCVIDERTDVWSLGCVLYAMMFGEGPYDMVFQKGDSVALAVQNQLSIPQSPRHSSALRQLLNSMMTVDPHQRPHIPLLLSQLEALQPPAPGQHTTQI

COc1ccc(-c2ccc3c(N4CCOC[C@@H]4C)nc(N4CCOC[C@@H]4C)nc3n2)cc1CO [AZD8055]
< 6: all assays above

CCNC(=O)Nc1ccc(-c2nc(N3CCOC[C@@H]3C)c3c(n2)C(C)(C)S(=O)(=O)C3)cc1 [CZ415]
< 6: all assays above
